Values belong to the compound of their own block, whether it stands above or below them.
Assays:
Acetyl-CoA carboxylase 1 [1] = target: Acetyl-CoA carboxylase 1 (Rattus norvegicus, UniProt P11497); assay: Inhibition of rat recombinant ACC1
[2] = Intrinsic clearance in human microsomes; format: ADME
[3] = Lipophilicity, log D of the compound; format: physicochemical; settings: octanol/water
Acetyl-CoA carboxylase 2 [4] = target: T1, Acetyl-CoA carboxylase 2 (Homo sapiens, UniProt O00763); assay: Inhibition of human ACC2 assessed as malonyl CoA formation by NADH-linked kinetic method
T1 sequence (O00763 whole entry): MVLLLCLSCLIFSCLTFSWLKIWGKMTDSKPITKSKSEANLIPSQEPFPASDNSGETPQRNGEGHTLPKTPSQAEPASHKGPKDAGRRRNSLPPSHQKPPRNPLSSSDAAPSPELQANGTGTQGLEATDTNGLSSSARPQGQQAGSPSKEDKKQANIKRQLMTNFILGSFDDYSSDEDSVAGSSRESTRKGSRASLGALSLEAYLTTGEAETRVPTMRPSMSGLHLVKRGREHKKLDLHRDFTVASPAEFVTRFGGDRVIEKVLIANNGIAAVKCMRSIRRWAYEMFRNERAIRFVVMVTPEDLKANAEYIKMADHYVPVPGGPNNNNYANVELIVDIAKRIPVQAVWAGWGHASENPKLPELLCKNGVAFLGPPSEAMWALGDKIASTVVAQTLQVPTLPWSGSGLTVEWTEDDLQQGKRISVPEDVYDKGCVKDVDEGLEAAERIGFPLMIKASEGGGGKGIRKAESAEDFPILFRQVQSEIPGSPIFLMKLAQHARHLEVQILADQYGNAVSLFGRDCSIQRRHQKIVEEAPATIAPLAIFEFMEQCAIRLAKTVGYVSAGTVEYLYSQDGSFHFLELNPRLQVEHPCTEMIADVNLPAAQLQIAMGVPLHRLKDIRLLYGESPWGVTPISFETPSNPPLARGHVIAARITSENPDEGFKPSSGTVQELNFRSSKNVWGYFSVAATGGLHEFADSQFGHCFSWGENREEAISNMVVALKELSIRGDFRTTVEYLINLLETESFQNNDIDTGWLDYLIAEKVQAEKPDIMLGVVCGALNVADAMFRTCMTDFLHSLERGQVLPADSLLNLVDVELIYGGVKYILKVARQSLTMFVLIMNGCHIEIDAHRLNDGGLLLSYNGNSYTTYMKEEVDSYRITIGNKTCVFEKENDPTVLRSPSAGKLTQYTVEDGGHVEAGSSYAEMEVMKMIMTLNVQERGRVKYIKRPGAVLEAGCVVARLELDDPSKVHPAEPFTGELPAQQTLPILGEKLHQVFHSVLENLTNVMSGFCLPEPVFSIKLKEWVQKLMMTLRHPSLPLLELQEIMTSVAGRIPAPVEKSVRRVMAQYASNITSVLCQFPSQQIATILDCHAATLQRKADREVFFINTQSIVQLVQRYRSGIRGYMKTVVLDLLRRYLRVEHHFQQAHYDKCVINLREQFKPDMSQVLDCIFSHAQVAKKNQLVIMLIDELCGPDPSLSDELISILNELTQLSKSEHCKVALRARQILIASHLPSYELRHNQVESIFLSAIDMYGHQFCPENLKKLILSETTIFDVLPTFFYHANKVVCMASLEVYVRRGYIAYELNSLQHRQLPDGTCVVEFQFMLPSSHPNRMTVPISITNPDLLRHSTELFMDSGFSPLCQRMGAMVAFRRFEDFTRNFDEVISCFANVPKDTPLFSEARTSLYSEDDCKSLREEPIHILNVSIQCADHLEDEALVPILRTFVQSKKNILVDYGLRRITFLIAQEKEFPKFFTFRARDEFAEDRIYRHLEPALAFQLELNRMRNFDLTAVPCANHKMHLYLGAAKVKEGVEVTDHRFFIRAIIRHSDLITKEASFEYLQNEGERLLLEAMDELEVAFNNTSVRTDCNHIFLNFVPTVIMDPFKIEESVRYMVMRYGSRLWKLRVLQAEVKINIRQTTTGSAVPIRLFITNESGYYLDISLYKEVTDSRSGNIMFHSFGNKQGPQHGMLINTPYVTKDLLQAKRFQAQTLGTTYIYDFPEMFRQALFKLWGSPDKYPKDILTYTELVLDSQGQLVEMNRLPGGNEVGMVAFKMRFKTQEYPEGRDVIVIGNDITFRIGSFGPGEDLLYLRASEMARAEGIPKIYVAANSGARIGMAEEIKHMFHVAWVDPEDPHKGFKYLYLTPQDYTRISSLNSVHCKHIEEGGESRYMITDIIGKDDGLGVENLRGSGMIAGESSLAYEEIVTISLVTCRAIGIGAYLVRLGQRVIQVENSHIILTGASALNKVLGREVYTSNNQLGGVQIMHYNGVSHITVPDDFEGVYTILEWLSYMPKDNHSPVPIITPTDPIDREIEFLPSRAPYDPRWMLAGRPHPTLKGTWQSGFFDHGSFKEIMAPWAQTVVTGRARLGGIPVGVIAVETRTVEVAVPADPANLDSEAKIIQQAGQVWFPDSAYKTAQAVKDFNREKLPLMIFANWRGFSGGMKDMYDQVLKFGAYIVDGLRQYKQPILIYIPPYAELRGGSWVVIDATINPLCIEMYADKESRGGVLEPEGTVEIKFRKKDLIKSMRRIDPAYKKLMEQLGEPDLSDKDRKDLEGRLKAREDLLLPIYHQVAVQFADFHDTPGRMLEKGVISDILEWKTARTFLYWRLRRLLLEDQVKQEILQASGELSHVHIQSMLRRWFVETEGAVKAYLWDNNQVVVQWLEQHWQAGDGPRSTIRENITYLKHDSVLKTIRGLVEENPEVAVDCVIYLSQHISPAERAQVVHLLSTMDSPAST

Acetyl-CoA carboxylase 1 [5] = target: Acetyl-CoA carboxylase 1 (Homo sapiens, UniProt Q13085); assay: In vitro inhibition of human recombinant His-tagged ACC1 assessed as malonyl-CoA level
HepG2 = assay: Inhibition of fatty acid synthesis in human HepG2 cells; format: functional, cell-based
Rattus norvegicus = species on record: Rattus norvegicus; assay: Reduction in fatty acid synthesis in Sprague-Dawley rat; format: functional
Acetyl-CoA carboxylase 2 [6] = target: T1, Acetyl-CoA carboxylase 2; assay: In vitro inhibition of human recombinant His-tagged ACC2 assessed as malonyl-CoA level

logD [3]: 5.9
Compound: CC(C)(C)OC(=O)CC[C@H]1CC[C@H](CNC(=O)c2cc(-c3ccccc3)nc3ccccc23)CC1

IC50 (Acetyl-CoA carboxylase 2 [4]): 50 nM
Compound: CCOc1ccc(N2CC(Oc3ccc([C@H](C)NC(=O)c4cn[nH]c4)cc3)C2)c(C)c1

IC50 (Acetyl-CoA carboxylase 2 [4]): 60 nM
Compound: CCCOc1ccc(C2CCN(c3ccc(C(C)NC(C)=O)cc3F)CC2)c(C)c1 (racemic)

IC50 (Acetyl-CoA carboxylase 2 [4]): 80 nM
Compound: Cc1cc(OCC2CC2)ccc1C1CCN(c2ccc(C(C)C(=O)NC3CC3)cc2)CC1 (racemic)

Second part, the compound before the results:

Compound: Cc1cc2c(cc1C)C(=O)CC1(CCN(C(=O)c3cc(C)c4[nH]ncc4c3)CC1)O2
IC50 (Acetyl-CoA carboxylase 1 [1]): 25 nM | CLint scaled [2]: 86 mL/min/kg

Compound: CC(C)(C)n1cc2c(n1)C(=O)CC1(CCN(C(=O)c3ccc4[nH]ncc4c3)CC1)O2
logD [3]: 1.8 | CLint scaled [2]: ≤ 8 mL/min/kg

Compound: CCOC(=O)N1CCN(c2nc(C)nc3sc4c(c23)CCCC4)CC1
IC50 (Acetyl-CoA carboxylase 1 [5]): 23000 nM

Compound: COc1ccccc1[C@@H](Cn1c(=O)n(C(C)(C)C(=O)O)c(=O)c2c(C)c(-c3ncco3)sc21)OC(C)C
IC50 (HepG2): < 100 nM

Compound: COc1ccccc1[C@H](Cn1c(=O)n(C(C)(C)C(=O)O)c(=O)c2c(C)c(-c3ncco3)sc21)OC1CCOCC1 [FIRSOCOSTAT]
IC50 (Acetyl-CoA carboxylase 1 [5]): 2.6 nM | IC50 (HepG2): < 100 nM | ED50 (Rattus norvegicus): < 0.3 mg/kg | IC50 (Acetyl-CoA carboxylase 2 [6]): 1.7 nM

— ChEMBL document CHEMBL3407354, “Recent advances in the development of acetyl-CoA carboxylase (ACC) inhibitors for the treatment of metabolic disease” (J Med Chem, 2015)
